Source: patent US20180284095A1, “BIOMARKERS ASSOCIATED WITH LSD1 INHIBITORS AND USES THEREOF” (Oryzon Genomics, S.A., priority 2015, published 2018)

Legend:
SAMP8 mice = assay: Platelet levels (hemogram) in SAMP8 mice; type: in vivo, mouse
Protocol: It is known that LSD1 is implicated in normal hematopoiesis (SprDssel et al, Leukemia 2012, 26(9)2039-51). […] The mice were sacrificed and blood was collected in sodium citrate-containing tubes for hemogram analysis. Platelets levels were determined in a standard hematology analyzer (Abacus Junior Vet, from Diatron) following the manufacturer's instructions.

S100A8 = assay: Microarray gene expression, hippocampus of SAMP8 mice (Example 3); type: in vivo, mouse; conditions: for Hybridization signal sample_Cy5 S100A8 / log2 (sample/control) S100A8: SAMP8 female pool
Protocol: (§1) Total RNA was extracted from samples using the RNeasy extraction kit (Qiagen). The quality and concentration of the RNA was analyzed using the Agilent 2100 bioanalyzer and NanoDrop™ ND-1000 (Thermo Scientific). Samples with RNA integrity number (RIN)<6.0 were discarded. Total RNA (0.5 μg) amplification and labelling with Cy3 or Cy5 was carried out using the Eberwein mRNA amplification procedure (Van Gelder et al, Proc Natl Acad Sci USA 1990, 87:1663-1667) employing the MessageAmp™ aRNA amplification kit from Ambion (Applied Biosystems) following the manufacturer's instructions with minor modifications. As hybridization controls, plant mRNAs were transcribed from a plasmid containing the Zea mays Xet (xyloglucan endo-transglycosylase) cDNA and from a plasmid containing the Zea mays Zmmyb42 cDNA, independently prepared Cy3 and Cy5 labelled aRNA from these two RNAs using the Eberwein mRNA amplification procedure (as disclosed in Cerdà et al, Gen Comp Endocrinol 2008, 156:470-481).
(§2) The Cy3- and Cy5-labelled cRNAs and spikes were combined and hybridized to the microarray described in Example 2.6 for 17 h at 60° C. using Agilent's gaskets G2534-60002, G2534A hybridization chambers and DNA Hybridization Oven G2545A, according to the manufacturer's instructions. More specifically, equal amounts of Cy3 and Cy5 labeled Xet aRNA as well as equal amounts of Cy3 and Cy5 labeled Zmmyb42 aRNA were spiked into each mixture hybridized to the array. Arrays were washed and raw data were obtained using Agilent's DNA Microarray Scanner G2505B and Feature Extraction software (v10.1). The raw fluorescence intensity data were processed using applicant's proprietary software, and consists in the following operations:
(§3) Data normalization was carried out by an improved version of the nonlinear Q-splines normalization method (Workman et al., Genome Biol 2002, 3(9):research0048.1-0048.16). Normalization results were presented graphically as MA plots, as first described by Dudoit et al (Dudoit et al, Statistica Sinica, 2002, 12:111-139). Each point corresponds to a probe of the DNA array. M values (vertical axis) are the log-differential expression ratios. A values (horizontal axis) are the log-intensities of the spots. M and A are calculated from the Cy5 and Cy3 intensity values as of each spot. The DNA Array data is normalized using an improved version of non-linear Q-Splines normalization described by Workman et al., Genome Biol 2002, 3(9):research0048.1-0048.16. This process is useful to correct the deviation of the M values from the statistical assumption that most of the spots have M=0 in MA plots. The method allows the adjustment of all M values to form a cloud centered at M=0 in all intensity ranges. The data used to calculate the normalization fitting curve is the totality of the raw measurement dataset, excluding the signals for the probes for the spiked-in plant RNA controls and negative controls. In order to be able to normalize properly the data among all the experiments, the probe-set must include an important group of genes that should have no change (M=0) in the experiment. The normalization function is then applied to all the data, including controls.
(§4) Normalized and log-transformed data were used to calculate log 2 (sample/control) and Fold Change (FC) values. No background subtraction was applied to the signal intensity values during data processing, permitting robust selection of differentially expressed genes with low expression levels at the cost of potential sub-estimation of change when intensity levels are close to the array background level.
(§5) The technical replicate analysis is the statistical processing of the microarray data. Replicates were calculated to measure oligo replicates on an array or between replicates of experiments on different arrays (i.e. hybridization of the same sample). […]

S100A9 = assay: as above; type: in vivo, mouse; conditions: for Hybridization signal sample_Cy5 S100A9 / log2 (sample/control) S100A9: SAMP8 female pool
Protocol: as §1, §2, §3, §4, §5

TUBB2C = assay: Microarray gene expression, hippocampus of SAMP8 mice (Example 3), housekeeping gene; type: in vivo, mouse; conditions: SAMP8 female pool
Protocol: as §1, §2, §3, §4, §5

TUBB3 = assay: as above; type: in vivo, mouse; conditions: SAMP8 female pool
Protocol: as §1, §2, §3, §4, §5

C57BL/6 mice = assay: Experimental Autoimmune Encephalomyelitis (EAE) model, MOG35-55; type: in vivo, mouse
Protocol: In particular, the murine EAE model as described herein, using MOG35-55 and C57BL/6 mice strain, is considered a validated preclinical model of the chronic progressive form of MS.
To induce chronic EAE by active immunization, C57BL/6 mice were immunized s.c. with 100 μg of myelin oligodendrocyte glycoprotein MOG35-55 emulsified in complete Freund's adjuvant (CFA) containing 4 mg/ml Mycobacterium tuberculosis H37 RA. Mice also received i.p. injections of 200 ng of pertussis toxin on days 0 and 2.
Mice were scored daily for signs of EAE according to the following clinical scoring system: 0, no clinical signs; 0.5, partial loss of tail tonicity; 1, complete loss of tail tonicity; 2, flaccid tail and abnormal gait; 3, hind leg paralysis; 4, hind leg paralysis with hind body paresis; 5, hind and fore leg paralysis; and 6, death.

[1] = Oral availability and blood-brain barrier crossing (statement)
[2] = SAMP8 females, treatment vs vehicle

(−) 5-((((trans)-2-(4-(benzyloxy)phenyl)cyclopropyl)amino)methyl)-1,3,4-oxadiazol-2-amine [Compound 1]
platelet levels (SAMP8 mice; SAMP8, HD (3.2 mg/kg/day)): significant reduction of platelet levels
platelet levels (SAMP8 mice; SAMP8, LD (0.96 mg/kg/day)): no significant reduction of platelet levels
platelet levels (SAMP8 mice; SAMP8 males, 0.96 mg/kg/day, 16 weeks (4 months), vs vehicle-treated SAMP8, 0.96 mg/kg/day): no statistically significant effects
platelet levels (SAMP8 mice; SAMP8 males, 0.96 mg/kg/day, 16 weeks (4 months), vs vehicle-treated SAMP8, listed as compound 1, 0.96 mg/kg/day): no changes in the platelet blood count
Hybridization signal sample_Cy5 S100A8 (S100A8; HD 3.2 mg/kg/day): 77.0786
log2 (sample/control) S100A8 (S100A8; HD 3.2 mg/kg/day vs SAMP8 VEH): −0.1813
Hybridization signal sample_Cy5 S100A8 (S100A8; LD 0.96 mg/kg/day): 70.7119
log2 (sample/control) S100A8 (S100A8; LD 0.96 mg/kg/day vs SAMP8 VEH): −0.2255
S100A8 expression (microarray) (S100A8; [2]): down-regulated
Hybridization signal sample_Cy5 S100A9 (S100A9; HD 3.2 mg/kg/day): 73.2282
log2 (sample/control) S100A9 (S100A9; HD 3.2 mg/kg/day vs SAMP8 VEH): −0.7647
Hybridization signal sample_Cy5 S100A9 (S100A9; LD 0.96 mg/kg/day): 66.4843
log2 (sample/control) S100A9 (S100A9; LD 0.96 mg/kg/day vs SAMP8 VEH): −0.8381
S100A9 expression (microarray) (S100A9; [2]): down-regulated
Hybridization signal sample_Cy5 TUBB2C (TUBB2C; HD 3.2 mg/kg/day): 9173
log2 (sample/control) TUBB2C (TUBB2C; HD 3.2 mg/kg/day vs SAMP8 VEH): 0.1327
Hybridization signal sample_Cy5 TUBB2C (TUBB2C; LD 0.96 mg/kg/day): 9392.47
log2 (sample/control) TUBB2C (TUBB2C; LD 0.96 mg/kg/day vs SAMP8 VEH): 0.1199
Hybridization signal sample_Cy5 TUBB3 (TUBB3; HD 3.2 mg/kg/day): 3168.4
log2 (sample/control) TUBB3 (TUBB3; HD 3.2 mg/kg/day vs SAMP8 VEH): 0.05769
Hybridization signal sample_Cy5 TUBB3 (TUBB3; LD 0.96 mg/kg/day): 3002.3
log2 (sample/control) TUBB3 (TUBB3; LD 0.96 mg/kg/day vs SAMP8 VEH): 0.04498
development of EAE, disease incidence and severity measured by daily clinical score (C57BL/6 mice; 1 or 3 mg/kg oral once a day, days 12-16 and 19-23 postimmunization): greatly inhibited the development of EAE
mice almost completely recovered (C57BL/6 mice; 40 days after disease onset): 30%
duration of protective effect (C57BL/6 mice; after cessation of the treatment): maintained for a long-period of time after cessation of the treatment
mice displaying mild symptoms (C57BL/6 mice; group treated with 1 or 3 mg/kg oral): 40-70%
blood-brain barrier crossing [1]: cross the blood-brain barrier
oral availability [1]: orally available
